Source: patent US9133183B2, “Imidazolidinones and analogs exhibiting anti-cancer and anti-proliferative activities” (Deciphera Pharmaceuticals, LLC, priority 2013, dated 2015)

Key:
[1] = target: unphosphorylated PDGFRβ kinase (uPDGFRβ, Seq. ID No. 3) (Homo sapiens (Human), UniProt P09619); assay: Unphosphorylated PDGFRβ kinase assay (coupled pyruvate kinase/lactate dehydrogenase); format: biochemical; conditions: enzymatic assay, ATP 500 μM
Protocol: Unphosphorylated PDGFRβ (uPDGFRβ) Kinase (Seq. ID No. 3) Assay
Activity of unphosphorylated PDGFRβ kinase (uPDGFRβ, Seq. ID No. 3) was determined by following the production of ADP from the kinase reaction with ATP and poly E4Y as substrates through coupling with the pyruvate kinase/lactate dehydrogenase system (e.g., Schindler et al. Science (2000) 289: 1938-1942). In this assay, the oxidation of NADH (thus the decrease at A340 nm) was continuously monitored spectrophometrically. The reaction mixture (100 μL) contained PDGFRβ (DeCode, 15.7 nM), polyE4Y (2.5 mg/mL), MgCl2 (10 mM), pyruvate kinase (4 units), lactate dehydrogenase (0.7 units), phosphoenol pyruvate (1 mM) and NADH (0.28 mM) and ATP (500 μM) in a 90 mM Tris buffer containing 0.2% octyl-glucoside and 1% DMSO, at pH 7.5. The inhibition reaction was started by mixing serial diluted test compound with the above reaction mixture. The absorption at 340 nm was monitored continuously for 4 h at 30° C. on a Polarstar Optima or Synergy 2 plate reader. The reaction rate was calculated using the 1.5 to 2.5 h time frame. Percent inhibition was obtained by comparison of reaction rate with that of a control (i.e., with no test compound). IC50 values were calculated from a series of percent inhibition values determined at a range of inhibitor concentrations using software routines as implemented in the GraphPad Prism software package.
uPDGFRβ Kinase Sequence (Residues 557-1106) Used for Screening (Seq ID No. 3)

M-NFS-60 cells = assay: M-NFS-60 cell proliferation assay (resazurin); format: cell-based; conditions: 67 h incubation
Protocol: M-NFS-60 cells (catalog #CRL-1838) were obtained from the American Type Culture Collection (ATCC, Manassas, Va.). Briefly, cells were grown in suspension in RPMI 1640 medium supplemented with 10% characterized fetal bovine serum (Invitrogen, Carlsbad, Calif.), 0.05 mM 2-mercaptoethanol, and 20 ng/mL mouse recombinant macrophage colony stimulating factor (M-CSF) at 37° C., 5% CO2, and 95% humidity. Cells were allowed to expand until reaching saturation at which point they were subcultured or harvested for assay use.
M-NFS-60 Cell Proliferation Assay
A serial dilution of test compound was dispensed into a 384-well black clear bottom plate (Corning, Corning, N.Y.). Two thousand five hundred cells were added per well in 50 μL complete growth medium. Plates were incubated for 67 h at 37° C., 5% CO2, and 95% humidity. At the end of the incubation period 10 μL of a 440 μM solution of resazurin (Sigma, St. Louis, Mo.) in PBS was added to each well and incubated for an additional 5 h at 37° C., 5% CO2, and 95% humidity. Plates were read on a Synergy2 reader (Biotek, Winooski, Vt.) using an excitation of 540 nm and an emission of 600 nm. IC50 values were calculated from a series of percent inhibition values determined at a range of inhibitor concentrations using software routines as implemented in the GraphPad Prism software package.

osteoclast precursors = assay: Osteoclast tartrate-resistant acid phosphatase assay; format: cell-based; conditions: 7-14 days, RANKL and M-CSF
Protocol: Osteoclast Tartrate-Resistant Acid Phosphatase Assay
A serial dilution of test compound was dispensed into a 384-well black clear bottom plate (Nalge Nunc International, Rochester, N.Y.). Compound was diluted by the addition of DMEM media supplemented with 10% characterized fetal bovine serum (Invitrogen, Carlsbad, Calif.). Diluted compound was transferred to a 384-well black clear bottom plate. Two-thousand five hundred osteoclast precursors (Lonza, Walkersville, Md.) were added per well in growth media containing Receptor Activator of Nuclear Factor Kappa-beta ligand (RANKL) and M-CSF (R&D Systems, Minneapolis, Minn.). Plates were incubated for 7-14 days at 37 degrees Celsius, 5% CO2, and 95% humidity to allow differentiation of osteoclast precursors. At the end of the incubation period, 10 μL of supernatant from each well was transferred to a clear 384-well plate. Tartrate-resistant acid phosphatase activity in the supernatant samples was determined using an acid phosphatase assay kit (Sigma, St. Louis, Mo.). Absorbance was measured at 550 nm using a plate reader. Data was analyzed using Prism software (Graphpad, San Diego, Calif.) to calculate IC50 values.

[2] = target: unphosphorylated c-FMS kinase (uFMS, Seq. ID no. 1) (Homo sapiens (Human), UniProt P07333); assay: uFMS kinase assay (ADP production coupled to pyruvate kinase/lactate dehydrogenase); format: biochemical; conditions: enzymatic assay, ATP 500 μM; read-out: uFMS
Chain of unphosphorylated c-FMS kinase (uFMS, Seq. ID no. 1) (P07333 538-972): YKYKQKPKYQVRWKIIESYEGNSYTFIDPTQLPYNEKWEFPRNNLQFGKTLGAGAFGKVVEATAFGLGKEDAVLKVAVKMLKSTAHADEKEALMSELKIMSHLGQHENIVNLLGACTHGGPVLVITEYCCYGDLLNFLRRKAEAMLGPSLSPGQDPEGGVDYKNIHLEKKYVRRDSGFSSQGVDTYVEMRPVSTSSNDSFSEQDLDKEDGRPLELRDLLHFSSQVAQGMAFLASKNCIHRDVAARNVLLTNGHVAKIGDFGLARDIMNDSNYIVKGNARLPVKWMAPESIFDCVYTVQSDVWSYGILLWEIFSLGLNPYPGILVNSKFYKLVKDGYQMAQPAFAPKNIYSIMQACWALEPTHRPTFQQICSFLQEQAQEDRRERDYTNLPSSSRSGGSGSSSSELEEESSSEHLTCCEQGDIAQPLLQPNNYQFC
Protocol: uFMS kinase (Seq. ID No. 1) Assay
In this assay, the oxidation of NADH (thus the decrease at A340 nm) was continuously monitored spectrophometrically. The reaction mixture (100 μL) contained FMS (purchased from Millipore) (10 nM), polyE4Y (1 mg/mL), MgCl2 (10 mM), pyruvate kinase (4 units), lactate dehydrogenase (0.7 units), phosphoenol pyruvate (1 mM), NADH (0.28 mM) and ATP (500 μM) in 90 mM Tris buffer containing 0.2% octyl-glucoside and 1% DMSO, pH 7.5. The inhibition reaction was started by mixing serial diluted test compound with the above reaction mixture. The absorption at 340 nm was monitored continuously for 4 hours at 30° C. on Synergy 2 plate reader. The reaction rate was calculated using the 3 to 4 h time frame. Percent inhibition was obtained by comparison of reaction rate with that of a control (i.e., in the absence of test compound). IC50 values were calculated from a series of percent inhibition values determined at a range of inhibitor concentrations using software routines as implemented in the GraphPad Prism software package.
uFMS Kinase Sequence (Y538-End) Used for Screening (Seq. ID No. 1)

[3] = target: unphosphorylated c-KIT kinase (uKIT, Seq. ID no. 2) (Homo sapiens (Human), UniProt P10721); assay: uKit kinase assay (coupled pyruvate kinase/lactate dehydrogenase); format: biochemical; conditions: enzymatic assay, ATP 2000 μM
Chain of unphosphorylated c-KIT kinase (uKIT, Seq. ID no. 2) (P10721 other isoform, or with tags, fused parts or gaps): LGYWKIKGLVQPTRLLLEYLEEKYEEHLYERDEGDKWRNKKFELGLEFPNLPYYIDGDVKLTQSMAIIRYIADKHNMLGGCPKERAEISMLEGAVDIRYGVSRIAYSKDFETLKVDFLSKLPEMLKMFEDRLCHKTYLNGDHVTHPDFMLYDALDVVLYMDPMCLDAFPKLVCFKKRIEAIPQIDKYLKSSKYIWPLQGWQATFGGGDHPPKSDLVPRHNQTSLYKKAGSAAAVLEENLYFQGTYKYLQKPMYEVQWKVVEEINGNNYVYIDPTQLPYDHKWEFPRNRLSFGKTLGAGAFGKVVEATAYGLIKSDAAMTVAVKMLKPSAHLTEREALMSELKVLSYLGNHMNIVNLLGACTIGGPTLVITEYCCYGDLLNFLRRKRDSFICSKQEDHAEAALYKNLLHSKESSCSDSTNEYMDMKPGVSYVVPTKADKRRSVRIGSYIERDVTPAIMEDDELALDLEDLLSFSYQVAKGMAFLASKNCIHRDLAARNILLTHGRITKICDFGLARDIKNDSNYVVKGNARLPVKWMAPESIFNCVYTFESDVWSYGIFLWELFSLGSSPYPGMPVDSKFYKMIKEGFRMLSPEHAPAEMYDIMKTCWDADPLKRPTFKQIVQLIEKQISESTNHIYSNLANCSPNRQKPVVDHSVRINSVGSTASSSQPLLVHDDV
Protocol: uKit Kinase (Seq. ID No. 2) Assay
Activity of unphosphorylated c-KIT kinase (uKIT, Seq. ID no. 2) was determined by following the production of ADP from the KIT kinase reaction with ATP and poly E4Y as substrates through coupling with the pyruvate kinase/lactate dehydrogenase system (e.g., Schindler et al. Science (2000) 289: 1938-1942). In this assay, the oxidation of NADH (thus the decrease at A340 nm) was continuously monitored spectrophometrically. The reaction mixture (100 μl) contained unphosphorylated KIT (12 nM), polyE4Y (1 mg/mL), MgCl2 (10 mM), pyruvate kinase (4 units), lactate dehydrogenase (0.7 units), phosphoenol pyruvate (1 mM), and NADH (0.28 mM) and ATP (2000 μM) in 90 mM Tris buffer containing 0.2% octyl-glucoside and 1% DMSO, pH 7.5. The inhibition reaction was started by mixing serial diluted test compound with the above reaction mixture. The absorption at 340 nm was monitored continuously for 4 hours at 30° C. on Synergy 2 plate reader (BioTech). Reaction rates around 3 to 4 h time frame were used to calculate % inhibitions, from which IC50 values were generated.
uKit with N-Terminal GST Fusion Used for Screening (Seq ID No. 2)

Chain of unphosphorylated PDGFRβ kinase (uPDGFRβ, Seq. ID No. 3) (P09619 557-1106): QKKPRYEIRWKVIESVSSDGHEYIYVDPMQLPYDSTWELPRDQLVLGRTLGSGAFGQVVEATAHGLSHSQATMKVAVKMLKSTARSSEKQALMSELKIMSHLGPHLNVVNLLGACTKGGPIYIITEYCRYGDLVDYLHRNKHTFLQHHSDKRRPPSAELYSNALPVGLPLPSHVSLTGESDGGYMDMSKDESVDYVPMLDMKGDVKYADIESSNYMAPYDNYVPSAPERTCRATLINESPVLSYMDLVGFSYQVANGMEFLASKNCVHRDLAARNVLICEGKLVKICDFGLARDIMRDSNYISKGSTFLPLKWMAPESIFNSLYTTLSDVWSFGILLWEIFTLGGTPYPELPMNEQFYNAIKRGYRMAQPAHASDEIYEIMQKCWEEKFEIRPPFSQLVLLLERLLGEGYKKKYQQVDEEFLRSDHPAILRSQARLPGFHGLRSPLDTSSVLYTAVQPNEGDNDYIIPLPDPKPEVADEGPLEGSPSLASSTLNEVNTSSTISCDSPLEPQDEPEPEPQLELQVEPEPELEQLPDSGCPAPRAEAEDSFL

Compound	IC50 [1]	IC50 (M-NFS-60 cells)	IC50 (osteoclast precursors)	IC50 [2]	IC50 [3]	IC50 (osteoclast precursors; Osteoclast)
Cn1cc(-c2cc(Oc3ccc(NC(=O)N4CCN([C@@H]5CCOC5)C4=O)nc3)ccn2)cn1 [Example 27, (R)—N-(5-((2-(1-methyl-1H-pyrazol-4-yl)pyridin-4-yl)oxy)pyridin-2-yl)-2-oxo-3-(tetrahydrofuran-3-yl)imidazolidine-1-carboxamide]	> 1 µM	0.01 to 0.1 µM	< 0.01 µM	< 0.01 µM		
Cn1cc(-c2cc(Oc3ccc(NC(=O)N4CC(C)(C)N(C5CCCCC5)C4=O)nc3)ccn2)cn1 [Example 31, 3-cyclohexyl-4,4-dimethyl-N-(5-((2-(1-methyl-1H-pyrazol-4-yl)pyridin-4-yl)oxy)pyridin-2-yl)-2-oxoimidazolidine-1-carboxamide]	> 1 µM	> 1 µM		0.01 to 0.1 µM	0.1 to 1 µM	
Cc1nc(NC(=O)N2CC(C)(C)N(C3CCCCC3)C2=O)ccc1Oc1ccnc(-c2cnn(C)c2)c1 [Example 32, 3-cyclohexyl-4,4-dimethyl-N-(6-methyl-5-((2-(1-methyl-1H-pyrazol-4-yl)pyridin-4-yl)oxy)pyridin-2-yl)-2-oxoimidazolidine-1-carboxamide]	> 1 µM			0.1 to 1 µM	0.1 to 1 µM	
COCCCN1CCN(C(=O)Nc2cc(Cl)c(Oc3ccnc(-c4cnn(C)c4)c3)cc2F)C1=O [Example 103, N-(5-chloro-2-fluoro-4-((2-(1-methyl-1H-pyrazol-4-yl)pyridin-4-yl)oxy)phenyl)-3-(3-methoxypropyl)-2-oxoimidazolidine-1-carboxamide]	> 1 µM	0.1 to 1 µM		0.01 to 0.1 µM		0.1 to 1 µM
Cn1cc(-c2cc(Oc3cc(F)c(NC(=O)N4CCN(C5COC5)C4=O)cc3Cl)ccn2)cn1 [Example 104, N-(5-chloro-2-fluoro-4-((2-(1-methyl-1H-pyrazol-4-yl)pyridin-4-yl)oxy)phenyl)-3-(oxetan-3-yl)-2-oxoimidazolidine-1-carboxamide]	> 1 µM	> 1 µM		0.1 to 1 µM		0.1 to 1 µM
COC[C@H](C)N1CCN(C(=O)Nc2cc(Cl)c(Oc3ccnc(-c4cnn(C)c4)c3)cc2F)C1=O [Example 105, (S)—N-(5-chloro-2-fluoro-4-((2-(1-methyl-1H-pyrazol-4-yl)pyridin-4-yl)oxy)phenyl)-3-(1-methoxypropan-2-yl)-2-oxoimidazolidine-1-carboxamide]	> 1 µM	0.1 to 1 µM		0.01 to 0.1 µM		0.01 to 0.1 µM
Cn1cc(-c2cc(Oc3cc(F)c(NC(=O)N4CCN(CCOC(F)(F)F)C4=O)cc3Cl)ccn2)cn1 [Example 106, N-(5-chloro-2-fluoro-4-((2-(1-methyl-1H-pyrazol-4-yl)pyridin-4-yl)oxy)phenyl)-2-oxo-3-(2-(trifluoromethoxy)ethyl)imidazolidine-1-carboxamide]	> 1 µM	> 1 µM		0.01 to 0.1 µM		0.1 to 1 µM
Cn1cc(-c2cc(Oc3cc(F)c(NC(=O)N4CCN(C5CCCCC5)C4=O)cc3Cl)ccn2)cn1 [Example 107, N-(5-chloro-2-fluoro-4-((2-(1-methyl-1H-pyrazol-4-yl)pyridin-4-yl)oxy)phenyl)-3-cyclohexyl-2-oxoimidazolidine-1-carboxamide]	0.1 to 1 µM	0.01 to 0.1 µM		< 0.01 µM		0.01 to 0.1 µM
COC(C)(C)CCN1CCN(C(=O)Nc2cc(Cl)c(Oc3ccnc(-c4cnn(C)c4)c3)cc2F)C1=O [Example 108, N-(5-chloro-2-fluoro-4-((2-(1-methyl-1H-pyrazol-4-yl)pyridin-4-yl)oxy)phenyl)-3-(3-methoxy-3-methylbutyl)-2-oxoimidazolidine-1-carboxamide]	> 1 µM	0.1 to 1 µM		0.01 to 0.1 µM		0.1 to 1 µM
Cn1cc(-c2cc(Oc3cc(F)c(NC(=O)N4CCN(C5CCC(F)(F)CC5)C4=O)cc3Cl)ccn2)cn1 [Example 110, N-(5-chloro-2-fluoro-4-((2-(1-methyl-1H-pyrazol-4-yl)pyridin-4-yl)oxy)phenyl)-3-(4,4-difluorocyclohexyl)-2-oxoimidazolidine-1-carboxamide]	> 1 µM	0.01 to 0.1 µM		< 0.01 µM		
Cn1cc(-c2cc(Oc3cc(F)c(NC(=O)N4CCN(C5CCCC5)C4=O)cc3Cl)ccn2)cn1 [Example 111, N-(5-chloro-2-fluoro-4-((2-(1-methyl-1H-pyrazol-4-yl)pyridin-4-yl)oxy)phenyl)-3-cyclopentyl-2-oxoimidazolidine-1-carboxamide]	> 1 µM	0.01 to 0.1 µM		< 0.01 µM		< 0.01 µM
Cn1cc(-c2cc(Oc3cc(F)c(NC(=O)N4CCN(CC(O)C(C)(C)C)C4=O)cc3Cl)ccn2)cn1 (stereo not shown) [Example 112, N-(5-chloro-2-fluoro-4-((2-(1-methyl-1H-pyrazol-4-yl)pyridin-4-yl)oxy)phenyl)-3-(2-hydroxy-3,3-dimethylbutyl)-2-oxoimidazolidine-1-carboxamide]	0.1 to 1 µM	0.1 to 1 µM		0.01 to 0.1 µM	0.01 to 0.1 µM	
